Measured values from the NIST ThermoML archive (doi:10.1021/je8006138).

Tests used:
[1] = xn = mol fraction of the nth substance listed; conditions: 101 kPa, Liquid; for viscosity: Capillary tube (Ostwald / Ubbelohde) method; for mass density: Pycnometric method
[2] = 101 kPa, Liquid; for viscosity: Capillary tube (Ostwald / Ubbelohde) method; for mass density: Pycnometric method

CCCCC(CC)COP(=O)(OCC(CC)CCCC)OCC(CC)CCCC (configuration not stated) [tris(2-ethylhexyl) phosphate] + C1CCCCC1
[1]
Conditions	mass density, 293.15 K [kg/m3]	mass density, 298.15 K [kg/m3]	mass density, 303.15 K [kg/m3]	viscosity, 293.15 K [mPa·s]	viscosity, 298.15 K [mPa·s]	viscosity, 303.15 K [mPa·s]
x1 = 0.0997	823.7	819.4	815.1	1.709	1.544	1.404
x1 = 0.1995	852.5	848.3	844.2	2.71	2.423	2.176
x1 = 0.2978	871.1	867.1	863.1	3.894	3.415	3.025
x1 = 0.4007	885.8	881.8	877.9	5.246	4.532	3.948
x1 = 0.4965	895.8	892	888	6.629	5.665	4.896
x1 = 0.582	902.8	899	895.1	7.908	6.682	5.732
x1 = 0.6955	910.4	906.6	902.8	9.64	8.09	6.862
x1 = 0.7732	914.6	910.8	907	10.8	9.002	7.619
x1 = 0.8997	920.2	916.5	912.6	12.64	10.5	8.806
x1 = 1	923.8	920.1	916.4	14.09	11.62	9.708

C1CCCCC1 [cyclohexane]
[2]
Conditions	mass density [kg/m3]	viscosity [mPa·s]
293.15 K	778.6	0.984
298.15 K	773.9	0.903
303.15 K	769.2	0.83

CCCCCC [hexane] + CCCCC(CC)COP(=O)(OCC(CC)CCCC)OCC(CC)CCCC
[1], x2 = 0
Conditions	mass density [kg/m3]	viscosity [mPa·s]
293.15 K	659.9	0.319
298.15 K	655.3	0.304
303.15 K	650.8	0.29
